According to patent publication US20050020580A1, “Materials and methods for the prevention or treatment of apoptosis and apoptosis-related diseases and conditions” (priority 2002, published 2005):
Where two headings read alike, the source gives them in different places.

Key:
[1] = NFV and RIT concentrations in brain tissues of mice given NFV/RIT suspension; format: in vivo; details: 3 doses of NFV/RIT suspension, whole brain removed immediately preceding the fourth dose, two mice; for concentration at 8 h: C57BL/6, mouse, brain, oral
Description: Supernatants were then analyzed as described herein for drug level determination. […] Given the significant drug levels achieved in the brains of these mice, the effects of PI in a mouse model of stroke could be examined.

[2] = system: hepatocytes; experiment: Fas signaling ex vivo in hepatocytes from mice challenged with IV Jo-2; details: hepatocytes from pretreated mice
Description: Hepatocyte isolation: Four hours after treatment with 7.5 μg of Jo-2 antibody, mice were euthanized with pentobarbital (60 mg/kg, Abbott), and hepatocytes isolated via a two-step collagenase digestion (Seglen, P. O. Methods Cell Biol 13, 29-83, 1976). Following red cell lysis, hepatocytes were enumerated and evaluated for loss of ΔΨm, and caspase 8 and 3 activity. Fluorometric Caspase 8 and 3 Activity.

[3] = system: Jurkat T cells; experiment: Apoptosis by selective PTPC agonists (ATR, STS, PK11195) in Jurkat T cells
[4] = system: Eschericheria coli; experiment: Minimal inhibitory concentration (MIC), NCCLS guidelines; format: cell-based; details: five clinical isolates
[5] = system: Enterococcus; experiment: as above
[6] = co-administration of RIT with NFV in human subjects (Raines et al.); cited from earlier work
[7] = system: RAW264.7 cells; format: cell-based, mouse
[8] = system: Pseudomonas aeruginosa; experiment: Minimal inhibitory concentration (MIC), NCCLS guidelines
[9] = system: Jurkat T cells; experiment: Fas signaling in Jurkat T cells stimulated with CH-11 anti-Fas antibody; format: cell-based
Description: Annexin-V and Propidium Iodide Staining. […] Western Blot Analysis. […] Fluorometric Caspase 8 and 3 Activity.

[10] = system: wild type yeast; experiment: Yeast clonogenic assay of apoptosis (Vpr peptide or H2O2); format: cell-based, Saccharomyces cerevisiae; details: varying doses
[11] = system: Streptococcus bovis; experiment: Minimal inhibitory concentration (MIC), NCCLS guidelines; details: Streptococcus equinus
[12] = biological target: T1, ANT (Rattus norvegicus, UniProt Q05962); experiment: ANT proteoliposomes, 4-MUP fluorescence release; format: biochemical; details: p<0.05
T1 construct: ANT (0.1 mg/ml) from rat heart mitochondria; from tissue; host or cells: rat heart mitochondria
T1 sequence (Q05962 1-298): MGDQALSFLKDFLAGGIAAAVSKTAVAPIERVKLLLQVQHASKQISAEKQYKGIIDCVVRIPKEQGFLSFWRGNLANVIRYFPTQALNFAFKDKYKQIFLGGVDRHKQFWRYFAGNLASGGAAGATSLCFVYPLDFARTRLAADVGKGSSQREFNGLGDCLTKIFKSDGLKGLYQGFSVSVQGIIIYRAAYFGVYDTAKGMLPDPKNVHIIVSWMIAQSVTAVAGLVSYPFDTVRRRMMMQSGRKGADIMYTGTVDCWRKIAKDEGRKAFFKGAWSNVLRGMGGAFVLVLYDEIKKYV
Description: (§1) Liposome technology: PTPC (1 mg/ml) was separated from rat brains and ANT (0.1 mg/ml) from rat heart mitochondria as previously described (Brenner, C. et al. Methods Enzymol 322, 243-52, 2000; Marzo, I. et al. Biomed Pharmacother 52, 248-51, 1998). Immediately after purification, pure proteins were reconstituted into proteoliposomes (phosphatidylcholin/cholesterol [5:1;w:w] for PTPC and phosphatidylcholin/cardiolipin [45:1; w:w] for ANT) (Belzacq, A. S. et al. Cancer Res 63, 541-6, 2003). […] The release of 4-MU was measured by spectrofluorimetry (excitation wave length 360 nm; emission wave length 450 nm). The maximum 4-MUP release was determined by adding 5% Triton X-100 to proteoliposomes. The percentage of 4-MUP release induced by treatment of liposomes by ATR was determined as [(ATR−treated liposomes fluorescence−untreated liposomes fluorescence)/(TX-100-treated liposomes fluorescence−untreated liposomes fluorescence)]×100. The maximal fluorescence induced by 800 μM ATR was then identified as 100% 4-MUP release and the fluorescence induced by the treatment of liposomes by another product or another dose was calculated as a percentage of ATR-induced 4-MUP release.

[13] = system: PTPC; experiment: PTPC proteoliposomes, 4-MUP fluorescence release; format: biochemical, rat; details: increasing doses of NFV
Description: as §1, with “2003). […] S. et al. Cancer Res 63, 541-6, 2003). 25 μl of proteoliposomes were incubated with the indicated agents (30 min for NFV and 60 min for ATR and Vpr52-96 at RT).” for “2003).”

[14] = Mouse pharmacokinetic studies: plasma drug concentrations by LC/MS/MS; format: in vivo, mice (BALB/C); details: oral
Description: Administration of PI for Experimental Protocols: Six to eight-week-old BALB/C mice (Jackson Labs, Bar Harbor, Me.) were acclimatized for one week before receiving either control vehicle or PI by gavage. PIs were prepared by dissolving 1% weight per volume carboxymethylcellulose and 15 mg/mL Nelfinavir (NFV) oral powder (commercial preparation, Agouron Laboratories, La Jolla, Calif.) in 2% ethanol in distilled water. […] The PI mixture was administered every 8 hours for the indicated number of doses and mice were either sacrificed for pharmacokinetic studies or treated as described. Histopathology was performed by a consulting veterinary pathologist who was blinded as to the nature of experimental treatments.
Immediately preceding the fourth dose and every two hours post gavage until hour 8, plasma drug concentrations were assayed. At both doses, NFV was undetectable (i.e. <2.5 ng/mL) 6 hours after dosing.
Drug levels were assessed in two mice each for several time-points. NFV levels were 8172 and 8914 ng/mL at 1 hour, 5999 and 6006 ng/mL at 2 hours, 5559 and 6048 ng/mL at 3 hours, and 4005 to 4217 ng/mL at 4 hours post-dosing.

## CC(C)c1nc(CN(C)C(=O)N[C@H](C(=O)N[C@@H](Cc2ccccc2)C[C@H](O)[C@H](Cc2ccccc2)NC(=O)OCc2cncs2)C(C)C)cs1 [RIT, ritonavir]
[1]
  RIT levels in brain tissue: 32 μg/gm of brain tissue
[1]; RIT levels in brain tissue
  concentration at 8 h: 38000 ng/g

## Cc1c(O)cccc1C(=O)N[C@@H](CSc1ccccc1)[C@H](O)CN1C[C@H]2CCCC[C@H]2C[C@H]1C(=O)NC(C)(C)C [NFV, nelfinavir]
[2]
  ΔΨm loss: inhibited
[3]; PBR agonist PK11195, NFV pretreated
  PK11195 induced apoptosis, ΔΨm, cytochrome c release, caspase 9, caspase 3 and PARP cleavage: not altered
[3]; VDAC agonist STS, NFV pretreated
  STS induced apoptosis, ΔΨm, cytochrome c release, caspase 9, caspase 3 and PARP cleavage: not altered
[4]
  MIC: > 10 µM
[5]
  MIC: > 10 µM
[6]
  Levels of NFV compared to NFV alone: significantly increased
[7]
  Apoptosis induced by PA and LT: significantly inhibited in a dose responsive manner
[8]
  MIC: > 10 µM
[9]; NFV pretreated, CH-11
  Procaspase 8 cleavage and activity, and Bid cleavage vs vehicle control cells: similar
[9]; NFV pretreatment, CH-11
  ΔΨm (loss of DiOC6 retention), cytochrome c release, caspase 9, and caspase 3 cleavage and activity: reduced
[9]; NFV pretreatment, varying concentrations
  Apoptosis (Annexin positivity) after CH-11 anti-CD95 antibody: dose-dependent reduction in apoptosis
[10]
  Apoptosis induced by H2O2 (viability): inhibited in a dose responsive manner
  Apoptosis induced by Vpr (viability): inhibited in a dose responsive manner
[1]
  Levels of NFV in brain tissue: 986 μg/gm of brain tissue
[1]; read-out: Levels of NFV in brain tissue
  concentration at 8 h: 682000 ng/g
[11]
  MIC: > 10 µM
[12]
  ATR induced release of fluorescence from ANT liposomes: inhibited
  Vpr induced release of fluorescence from ANT liposomes: inhibited
[13]
  ATR induced fluorescence release from PTPC liposomes: progressively inhibited
[14]; BALB/C, NFV alone, 125 mg/kg or 250 mg/kg every 8 hours by gavage, BALB/C mice, read-out: NFV plasma drug concentration 6 hours after dosing
  concentration at 6 h: < 2.5 ng/mL
[14]; pharmacokinetic studies in mice (data not shown)
  Cmax: ~8 µM
